# Assay results as given in ChEMBL document CHEMBL5331050, “Spiro[benzoxazine-piperidin]-one derivatives as chitin synthase inhibitors and antifungal agents: Design, synthesis and biological evaluation” (Eur J Med Chem, 2022).
# *1 amine or outer side, *2 acyl side, *3 side chain or, on linkers, in order; H or OH if unused. Where a SMILES comes first, the peptide text is derived from it. Bridges are numbered along the chain shown (N, C = ends). [ ]: non-standard residue; d: D form. The star is where a group is joined. hTyr(3S-OH,4S-OH,3'-OSO3H) = N[C@H](C(=O)O)[C@H](O)[C@@H](O)c1ccc(O)c(OS(=O)(=O)O)c1; Orn(4R-OH,5R-OH) = O=C([C@H](C[C@@H](O)[C@@H](O)N[*:3])N[*:1])[*:2]; Pro(3S-OH,4S-Me) = C[C@H]1CN[C@H](C(=O)O)[C@H]1O; X1 = CCCCCOc1ccc(-c2cc(-c3ccc(C(=O)*)cc3)no2)cc1; Gln(3R-OH) = NC(=O)C[C@@H](O)[C@H](N)C(=O)O; Hyp = O=C(O)[C@@H]1C[C@@H](O)CN1
# What was measured:
# Candida tropicalis = experiment: Inhibition of Candida tropicalis ATCC 750 chitin synthase using UDP-GlcNAc as substrate at 300 ug/ml incubated for 1 hrs by absorbance based assay relative to control; details: dose 300.0 µg/ml
# Candida albicans [1] = experiment: Antifungal activity against Candida albicans ATCC 76615 assessed as fungal growth inhibition incubated for 24 hrs by CLSI protocol based broth microdilution method; type: functional
# Aspergillus flavus [2] = experiment: Antifungal activity against Aspergillus flavus ATCC 16870 assessed as fungal growth inhibition incubated for 24 hrs by CLSI protocol based broth microdilution method; type: functional
# Aspergillus fumigatus [3] = experiment: Antifungal activity against Aspergillus fumigatus GIMCC 3.19 assessed as fungal growth inhibition incubated for 24 hrs by CLSI protocol based broth microdilution method; type: functional
# Cryptococcus neoformans [4] = experiment: Antifungal activity against Cryptococcus neoformans ATCC 208821 assessed as fungal growth inhibition incubated for 24 hrs by CLSI protocol based broth microdilution method; type: functional
# [5] = Inhibition of Candida tropicalis ATCC 750 chitin synthase using UDP-GlcNAc as substrate incubated for 1 hrs by absorbance based assay
# Candida albicans [6] = experiment: Synergistic antifungal activity against Candida albicans ATCC 76615 assessed as fungal growth inhibition incubated for 24 hrs in the presence of fluconazole by broth dilution based checkerboard method; type: functional
# Aspergillus fumigatus [7] = experiment: Synergistic antifungal activity against Aspergillus fumigatus GIMCC 3.19 assessed as fungal growth inhibition incubated for 24 hrs in the presence of fluconazole by broth dilution based checkerboard method; type: functional
# Cryptococcus neoformans [8] = experiment: Synergistic antifungal activity against Cryptococcus neoformans ATCC 208821 assessed as fungal growth inhibition incubated for 24 hrs in the presence of fluconazole by broth dilution based checkerboard method; type: functional
# Aspergillus flavus [9] = experiment: Synergistic antifungal activity against Aspergillus flavus ATCC 16870 assessed as fungal growth inhibition incubated for 24 hrs in the presence of fluconazole by broth dilution based checkerboard method; type: functional
# Candida albicans [10] = experiment: Synergistic antifungal activity against Candida albicans ATCC 76615 assessed as fractional inhibitory concentration index incubated for 24 hrs in the presence of fluconazole by broth dilution based checkerboard method; type: functional
# Aspergillus fumigatus [11] = experiment: Synergistic antifungal activity against Aspergillus fumigatus GIMCC 3.19 assessed as fractional inhibitory concentration index incubated for 24 hrs in the presence of fluconazole by broth dilution based checkerboard method; type: functional
# Cryptococcus neoformans [12] = experiment: Synergistic antifungal activity against Cryptococcus neoformans ATCC 208821 assessed as fractional inhibitory concentration index incubated for 24 hrs in the presence of fluconazole by broth dilution based checkerboard method; type: functional
# Aspergillus flavus [13] = experiment: Synergistic antifungal activity against Aspergillus flavus ATCC 16870 assessed as fractional inhibitory concentration index incubated for 24 hrs in the presence of fluconazole by broth dilution based checkerboard method; type: functional
# Candida albicans [14] = experiment: Antifungal activity against micafungin-resistant Candida albicans ATCC 76615R assessed as fungal growth inhibition; type: functional
# Candida albicans [15] = experiment: Antifungal activity against fluconazole-resistant Candida albicans ATCC 76615R assessed as fungal growth inhibition; type: functional
# Cryptococcus neoformans [16] = experiment: Antifungal activity against fluconazole-resistant Cryptococcus neoformans ATCC 208821R assessed as fungal growth inhibition; type: functional
Structure (SMILES),inhibition (Candida tropicalis) [%],MIC (Candida albicans [1]) [µg/mL],MIC (Aspergillus flavus [2]) [µg/mL],MIC (Aspergillus fumigatus [3]) [µg/mL],MIC (Cryptococcus neoformans [4]) [µg/mL],IC50 [5] [µM],MIC (Candida albicans [6]) [µg/mL],MIC (Aspergillus fumigatus [7]) [µg/mL],MIC (Cryptococcus neoformans [8]) [µg/mL],MIC (Aspergillus flavus [9]) [µg/mL],fractional inhibitory concentration index (FICI) (Candida albicans [10]),fractional inhibitory concentration index (FICI) (Aspergillus fumigatus [11]),fractional inhibitory concentration index (FICI) (Cryptococcus neoformans [12]),fractional inhibitory concentration index (FICI) (Aspergillus flavus [13]),MIC (Candida albicans [14]) [µg/mL],MIC (Candida albicans [15]) [µg/mL],MIC (Cryptococcus neoformans [16]) [µg/mL]
COc1ccc2c(c1)C1(CCN(C(=O)CC(=O)Nc3ccc(Br)cc3)CC1)OC(=O)N2,18,512,256,256,256,–,–,–,–,–,–,–,–,–,–,–,–
COc1ccc2c(c1)C1(CCN(C(=O)CCC(=O)Nc3ccc(Br)cc3)CC1)OC(=O)N2,23,107,256,512,256,–,–,–,–,–,–,–,–,–,–,–,–
COc1ccc(NC(=O)C(O)C(O)C(=O)N2CCC3(CC2)OC(=O)Nc2ccc(OC)cc23)cc1 (stereo not drawn),52,> 512,512,256,> 512,–,–,–,–,–,–,–,–,–,–,–,–
COc1ccc2c(c1)C1(CCN(C(=O)CC(=O)Nc3ccccc3)CC1)OC(=O)N2,16,512,256,> 512,256,–,–,–,–,–,–,–,–,–,–,–,–
COc1ccc2c(c1)C1(CCN(C(=O)/C=C/C(=O)Nc3ccc(C)cc3)CC1)OC(=O)N2,65,128,256,256,256,370,–,–,–,–,–,–,–,–,–,–,–
COc1ccc2c(c1)C1(CCN(C(=O)CC(=O)Nc3ccc(C)cc3)CC1)OC(=O)N2,13,512,> 512,> 512,> 512,–,–,–,–,–,–,–,–,–,–,–,–
COc1ccc(NC(=O)/C=C/C(=O)N2CCC3(CC2)OC(=O)Nc2ccc(OC)cc23)cc1,82,64,64,128,256,210,6.67,26,32,128,1.1,1.125,0.625,3,–,–,–
COc1ccc(NC(=O)CCC(=O)N2CCC3(CC2)OC(=O)Nc2ccc(OC)cc23)cc1,17,> 512,> 512,256,256,–,–,–,–,–,–,–,–,–,–,–,–
COc1ccc2c(c1)C1(CCN(C(=O)/C=C/C(=O)Nc3cc(C)cc(C)c3)CC1)OC(=O)N2,16,512,512,> 512,> 512,–,–,–,–,–,–,–,–,–,–,–,–
COc1cccc(NC(=O)/C=C/C(=O)N2CCC3(CC2)OC(=O)Nc2ccc(OC)cc23)c1,37,256,128,128,64,–,–,–,–,–,–,–,–,–,–,–,–
COc1ccc2c(c1)C1(CCN(C(=O)/C=C/C(=O)Nc3ccccc3)CC1)OC(=O)N2,69,64,53.3,53.3,64,280,32,26,16,64,1,0.55,1.125,1.125,–,–,–
COc1ccc2c(c1)C1(CCN(C(=O)/C=C/C(=O)Nc3cccc4ccccc34)CC1)OC(=O)N2,46,256,> 512,> 512,256,–,–,–,–,–,–,–,–,–,–,–,–
"CCCCCOc1ccc(-c2cc(-c3ccc(C(=O)N[C@H]4C[C@@H](O)[C@@H](O)NC(=O)[C@@H]5[C@@H](O)[C@@H](C)CN5C(=O)[C@H]([C@H](O)CC(N)=O)NC(=O)[C@H]([C@H](O)[C@@H](O)c5ccc(O)c(OS(=O)(=O)O)c5)NC(=O)[C@@H]5C[C@@H](O)CN5C(=O)[C@H]([C@@H](C)O)NC4=O)cc3)no2)cc1 [MICAFUNGIN] (X1-[Orn(4R-OH,5R-OH)]T[Hyp][hTyr(3S-OH,4S-OH,3'-OSO3H)][Gln(3R-OH)][Pro(3S-OH,4S-Me)]; lactam 1-C)",–,0.063,–,–,> 512,–,–,–,–,–,–,–,–,–,256,–,–
COc1ccc2c(c1)C1(CCN(C(=O)/C=C/C(=O)Nc3ccccc3[N+](=O)[O-])CC1)OC(=O)N2,18,512,512,256,256,–,–,–,–,–,–,–,–,–,–,–,–
COc1ccc2c(c1)C1(CCN(C(=O)/C=C/C(=O)Nc3ccccc3C)CC1)OC(=O)N2,14,256,512,> 512,> 512,–,–,–,–,–,–,–,–,–,–,–,–
COc1ccc(NC(=O)CC(=O)N2CCC3(CC2)OC(=O)Nc2ccc(OC)cc23)cc1,16,512,> 512,256,> 512,–,–,–,–,–,–,–,–,–,–,–,–

Structure (SMILES),inhibition (Candida tropicalis) [%],MIC (Candida albicans [1]) [µg/mL],MIC (Aspergillus flavus [2]) [µg/mL],MIC (Aspergillus fumigatus [3]) [µg/mL],MIC (Cryptococcus neoformans [4]) [µg/mL],IC50 [5] [µM],MIC (Candida albicans [6]) [µg/mL],MIC (Aspergillus fumigatus [7]) [µg/mL],MIC (Cryptococcus neoformans [8]) [µg/mL],MIC (Aspergillus flavus [9]) [µg/mL],fractional inhibitory concentration index (FICI) (Candida albicans [10]),fractional inhibitory concentration index (FICI) (Aspergillus fumigatus [11]),fractional inhibitory concentration index (FICI) (Cryptococcus neoformans [12]),fractional inhibitory concentration index (FICI) (Aspergillus flavus [13]),MIC (Candida albicans [14]) [µg/mL],MIC (Candida albicans [15]) [µg/mL],MIC (Cryptococcus neoformans [16]) [µg/mL]
COc1ccc2c(c1)C1(CCN(C(=O)/C=C/C(=O)Nc3ccccc3Br)CC1)OC(=O)N2,40,256,64,128,256,–,–,–,–,–,–,–,–,–,–,–,–
COc1ccc2c(c1)C1(CCN(C(=O)/C=C/C(=O)Nc3cccc([N+](=O)[O-])c3)CC1)OC(=O)N2,34,128,256,107,256,–,–,–,–,–,–,–,–,–,–,–,–
COc1ccc2c(c1)C1(CCN(C(=O)/C=C/C(=O)Nc3ccc(C(F)(F)F)cc3)CC1)OC(=O)N2,15,512,128,> 512,256,–,–,–,–,–,–,–,–,–,–,–,–
COc1ccc2c(c1)C1(CCN(C(=O)/C=C/C(=O)Nc3cccc(C)c3)CC1)OC(=O)N2,42,256,> 512,> 512,> 512,–,–,–,–,–,–,–,–,–,–,–,–
COc1ccc2c(c1)C1(CCN(C(=O)C(O)C(O)C(=O)Nc3ccccc3)CC1)OC(=O)N2 (stereo not drawn),41,512,512,512,> 512,–,–,–,–,–,–,–,–,–,–,–,–
COc1ccc2c(c1)C1(CCN(C(=O)C(O)C(O)C(=O)Nc3ccc(C)cc3)CC1)OC(=O)N2 (stereo not drawn),43,> 512,> 512,256,> 512,–,–,–,–,–,–,–,–,–,–,–,–
COc1ccc2c(c1)C1(CCN(C(=O)CCC(=O)Nc3ccc(C)cc3)CC1)OC(=O)N2,11,128,256,> 512,256,–,–,–,–,–,–,–,–,–,–,–,–
COc1ccc2c(c1)C1(CCN(C(=O)CCC(=O)Nc3ccccc3)CC1)OC(=O)N2,6,> 512,256,> 512,> 512,–,–,–,–,–,–,–,–,–,–,–,–
COc1ccc2c(c1)C1(CCN(C(=O)/C=C/C(=O)Nc3ccc(Cl)cc3)CC1)OC(=O)N2,51,512,256,128,512,–,–,–,–,–,–,–,–,–,–,–,–
COc1ccc2c(c1)C1(CCN(C(=O)/C=C/C(=O)Nc3ccc([N+](=O)[O-])cc3)CC1)OC(=O)N2,13,512,> 512,> 512,> 512,–,–,–,–,–,–,–,–,–,–,–,–
COc1ccc2c(c1)C1(CCN(C(=O)/C=C/C(=O)Nc3ccccc3Cl)CC1)OC(=O)N2,36,16,32,32,32,–,16,64,16,13.3,1.125,2,0.625,1.42,–,–,–
COc1ccc2c(c1)C1(CCN(C(=O)/C=C/C(=O)Nc3ccc(C(F)(F)F)cc3C(F)(F)F)CC1)OC(=O)N2,30,256,> 512,> 512,> 512,–,–,–,–,–,–,–,–,–,–,–,–
COc1ccc2c(c1)C1(CCN(C(=O)/C=C/C(=O)Nc3ccccc3OC)CC1)OC(=O)N2,60,64,128,128,256,330,–,–,–,–,–,–,–,–,–,–,–
COc1ccc2c(c1)C1(CCN(C(=O)/C=C/C(=O)Nc3ccc(F)c(Cl)c3)CC1)OC(=O)N2,70,64,16,16,64,160,64,8,32,64,2,0.75,0.625,1.125,64,53.3,64
COc1ccc2c(c1)C1(CCN(C(=O)C(O)C(O)C(=O)Nc3ccc(Br)cc3)CC1)OC(=O)N2 (stereo not drawn),43,> 512,512,> 512,512,–,–,–,–,–,–,–,–,–,–,–,–
